According to patent publication US5534416A, “Fluorescent viability assay using cyclic-substituted unsymmetrical cyanine dyes” (Molecular Probes, Inc., priority 1993, dated 1996):

Key:
[1] = tested on: nucleic acids; assay: Excitation/emission maxima of dyes complexed with nucleic acids; format: physicochemical; design: key: wavelength in nm; conditions: Table 2; dye complexed with nucleic acids
Text: Dye I is lightly colored and is virtually non-fluorescent when diluted in aqueous solution according to the method of the invention. Dye I is highly membrane-permeant and labels all cells, whether live or dead. When Dye I binds with intracellular nucleic acid polymers such as DNA and RNA, the resultant dye-nucleic acid complex becomes extremely fluorescent upon illumination. The quantum yield of the preferred Dye I/DNA complex is greater than 0.02, typically greater than 0.1, preferably greater than 0.2, and more preferably greater than 0.3. Typically, Dye I combines with intracellular nucleic acids to give a green or red fluorescence. When excited at a wavelength between about 300 nm and about 500 nm, the dyes complexed with nucleic acids have an emission maximum between about 500 and about 610 nm (see Table 2). Preferably, Dye I complexed with nucleic acids has an emission maximum of between about 500 nm and about 535 nm, resulting in a true green fluorescent signal in cells of the sample where Dye I is present alone.

[2] = tested on: DNA; assay: Quantum yield of dye on DNA versus fluorescein; format: physicochemical; conditions: for QY (DNA): Table 2, Tris buffered saline pH 10, fluorescein assumed 0.92; for Normalized QY: QY divided by QY of thiazole orange; for QY: Table 7, on DNA, fluorescein reference
Text: ^ Quantum yield (QY) of dye on DNA (standard solution in Tris buffere
saline adjusted to pH 10) in comparison with fluorescein, which is assume
to have a quantum yield of 0.92 under the test conditions.
(§1) Factors such as degree of fluorescence enhancement with nucleic acid binding, self quenching, molar extinction coefficient, membrane permeability, intracellular partitioning, nucleic acid binding affinity, and quantum yield contribute to the overall fluorescence of nucleic acid stains in cells. Enhanced cell fluorescence obtained with Dye I is related to unexpected properties other than quantum yield alone. Quantum yield is determined as described above (foot note to Table 2). Normalized quantum yield is determined to illustrate the fold-change in quantum yield of Dye I compared with thiazole orange, a related cell-permeant dye. The normalized fluorescence values represent the quantum yield of each dye divided by the quantum yield of thiazole orange. Fluorescence per cell is also scaled to thiazole orange values for both E. coli and S. aureus to allow direct comparison between relative (normalized) quantum yield and relative (normalized) fluorescence/cell.

[3] = tested on: Peripheral blood lymphocytes; assay: Live/dead staining of peripheral blood lymphocytes, fluorescence microscopy; format: cell-based, goat; conditions: 1 μM dye 637, 1 μM calcein AM, 30 minutes each, either order
Description: Peripheral blood lymphocytes are isolated from whole goat blood using the standard ficoll density gradient protocol. The cells are incubated in saline buffer with coverslips coated with a cell adhesive. After attachment to the coverslip, the cells are incubated with either
a) 1 μM dye 637 for 30 minutes followed by washing, and subsequently incubating with 1 μM calcein AM for 30 minutes, or
b) as above but labeling first with calcein AM, and subsequently staining with dye 637.
After washing with saline, the stained cells are viewed through a long-pass fluorescein filter to view calcein fluorescence and a long-pass Texas Red® filter to view the emission of dye 637. A Nikon fluorescence microscope equipped with a 40× objective is used for inspection and photography.

[4] = tested on: prokaryotic microbes; conditions: Kaneshiro et al. 1993; cited from earlier work
[5] = tested on: NIH/3T3 mouse fibroblast cell line; assay: Live/dead staining of fibroblasts, fluorescence microscopy; format: cell-based
Description: NIH/3T3 mouse fibroblast cell line is obtained from American Type Culture Collection Co., Rockville, Md. The cells are maintained in a humidified atmosphere of 5% CO2 in Dulbecco's modified Eagle's medium (DMEM) supplemented with 10% calf serum, 50 μg/mL gentamicin, 300 μg/mL L-glutamine and 10 mM HEPES pH 7.4. Cells are subcultured every 3 days by trypsinization using 0.05% trypsin and 0.02% EDTA in a Ca- and Mg-free saline solution (Gibco BRL, Gaithersburg, Md.).
A 5 μM staining solution of the dye 61 is prepared by dilution of 25 μL of 2 mM stock solution into 10 mL DMEM. A 2 μM staining solution of ethidium homodimer-1 is prepared by dilution of 2 μL of 10 mM stock solution into 10 mL phosphate buffered saline (PBS).
The 3T3 cells are stained with the 5 μM solution of dye 61, and then incubated in the dark at room temperature for 30 minutes. The cells are then […] with the 2 μM ethidium homodimer-1 solution.
The 3T3 cells are then observed a long-pass fluorescein filter to view dye 61 fluorescence and a long-pass Texas Red® filter to view the emission of ethidium homodimer. A Nikon fluorescence microscope equipped with a 40× objective is used for inspection and photography.

[6] = tested on: calf thymus DNA; conditions: Table 5; bound to excess calf thymus DNA (50 bp/dye); cited from earlier work
[7] = tested on: intact cells; conditions: cited from earlier work
[8] = tested on: B. cereus; assay: Fluorescence per cell, stained bacteria (microtiter plate reader); format: cell-based, Bacillus cereus; conditions: optimal dye concentration, corrected for cell number
Description: (§2) 1. Measured in a fluorescence microtiter plate reader with extraction and
(§3) emission filters at 485+/-10 and 530+/-12, respectively. Fluorescence dat
(§4) are corrected for cell number; but are not corrected for cell volume or
(§5) 2. Optimal dye concentrations determined as in Example 3.
(§6) 3. Suspension concentrations as used for Example 3.
(§7) A culture of E. coli is washed by centrifugation and resuspended in water to its original volume. Using Corning 96-well microtiter plates with flat bottoms, 150 μL volumes of suspension are loaded per well. A single well of sterile water is the well background standard. Using a Dynatech MR600 microplate reader equipped with a 410 nm filter, absorbance is determined for the initial volumes of suspension. The suspension is diluted seven times by serial ten-fold dilutions in water, 150 μL of suspension per well, and the absorbance measured for each dilution. Following the absorbance measurements, each dilution loaded into wells is further diluted 1:10 and plated in duplicate on nutrient growth agar. The colonies are counted and expressed as colony forming units per milliliter (cfu/mL). Using the turbidity of the dilution in the microtiter plate, the suspension is diluted to a density of about 1×10^9 cfu/mL.
(§8) The bacteria suspension, adjusted to a known density as described above, is diluted seven times by serial ten-fold dilutions in water; 150 μL of suspension per well. Three-fold serial dilutions of dye are used (30-0.04 μM); 50 μL of dye at 4× final concentration. Using Corning 96-well microtiter flat-bottom plates, a matrix is set up whereby the cell concentration decreases across the plate and the dye concentration decreases down the plate, final volume per well is 200 μL. The top row and first column are reserved for the control, sterile water. The plate is incubated at 37° C. for 30 minutes, then read in a Millipore Cytofluor™ 2350 96-well fluorescence microplate reader at a fixed excitation of 485+/-10 nm and each of three emission wavelengths, 530+/-12, 620+/-20, or 645+/-20 nm. The results determine the best dye range (30-1 μM) and the best cell concentrations (concentrated through first three ten-fold dilutions) for optimal dye loading. […] Using the four dye dilutions and the four bacterial dilutions, many bacteria and dyes can be assayed quickly. The data collected allow the determination of optimal dye and cell concentration required for maximal fluorescence intensity per cell.

[9] = tested on: M. luteus; assay: as above; format: cell-based, Micrococcus luteus; conditions: optimal dye concentration, corrected for cell number
Description: as §2, §3, §4, §5, §6, §7, §8

[10] = tested on: S. pyogenes; assay: as above; format: cell-based, Streptococcus pyogenes; conditions: optimal dye concentration, corrected for cell number
Description: as §2, §3, §4, §5, §6, §7, §8

[11] = tested on: S. aureus; assay: as above; format: cell-based, Staphylococcus aureus; conditions: for Fluorescence/Cell (ex 485/em 530): S. aureus, optimal dye concentration, corrected for cell number; for Normalized Fluorescence/cell (ex 485 nm/em 530 nm), Staphylococcus aureus: scaled to thiazole orange
Text: as §2, §3, §4, §5, §6, §1, §7, §8

[12] = tested on: E. coli; assay: as above; format: cell-based, Escherichia coli; conditions: for Fluorescence/Cell (ex 485/em 530): E. coli, optimal dye concentration, corrected for cell number; for Normalized Fluorescence/cell (ex 485 nm/em 530 nm), Escherichia coli: scaled to thiazole orange
Text: as §2, §3, §4, §5, §6, §1, §7, §8

[13] = tested on: S. oranienburg; assay: as above; format: cell-based, Salmonella oranienburg; conditions: optimal dye concentration, corrected for cell number
Description: as §2, §3, §4, §5, §6, §7, §8

[14] = tested on: K. pneumonia; assay: as above; format: cell-based, Klebsiella pneumonia; conditions: optimal dye concentration, corrected for cell number
Description: as §2, §3, §4, §5, §6, §7, §8

[15] = tested on: S. sonnei; assay: as above; format: cell-based, Shigella sonnei; conditions: optimal dye concentration, corrected for cell number
Description: as §2, §3, §4, §5, §6, §7, §8

[16] = tested on: P. aeruginosa; assay: as above; format: cell-based, Pseudomonas aeruginosa; conditions: optimal dye concentration, corrected for cell number
Description: as §2, §3, §4, §5, §6, §7, §8

[17] = tested on: nucleic acids; conditions: cited from earlier work

Molecule	EM max [1]	EX max [1]	QY (DNA) [2]	Fluorescence/Cell (ex 485/em 530) [8]	Fluorescence/Cell (ex 485/em 530) [9]	Fluorescence/Cell (ex 485/em 530) [10]	Fluorescence/Cell (ex 485/em 530) [11]	Normalized Fluorescence/cell (ex 485 nm/em 530 nm), Staphylococcus aureus [11]	Fluorescence/Cell (ex 485/em 530) [12]	Normalized Fluorescence/cell (ex 485 nm/em 530 nm), Escherichia coli [12]	Fluorescence/Cell (ex 485/em 530) [13]	Fluorescence/Cell (ex 485/em 530) [14]	Fluorescence/Cell (ex 485/em 530) [15]	Fluorescence/Cell (ex 485/em 530) [16]	Normalized QY [2]	QY [2]	other results
CCCCC1=CC(=CC=Cc2oc3ccccc3[n+]2C)c2ccccc2N1c1ccccc1 [compound 637]	622	601	0.28	–	–	–	–	–	–	–	–	–	–	–	–	–	staining of dead cells [3]: stained only with dye 637 and do not exhibit green fluorescence
Nc1ccc2c(c1)c(-c1ccccc1)[n+](CCCNCCNCCC[n+]1c(-c3ccccc3)c3cc(N)ccc3c3ccc(N)cc31)c1cc(N)ccc21 [ethidium homodimer]	–	–	–	–	–	–	–	–	–	–	–	–	–	–	–	–	usefulness with prokaryotic microbes versus eukaryotic microbes [4]: less useful with cells from prokaryotic microbes
Nc1ccc2c(c1)c(-c1ccccc1)[n+](CCCNCCNCCC[n+]1c(-c3ccccc3)c3cc(N)ccc3c3ccc(N)cc31)c1cc(N)ccc21 [Ethidium homodimer-1]	–	–	–	–	–	–	–	–	–	–	–	–	–	–	–	–	staining of dead cells ([5]; 2 μM): dead cells are stained fluorescent red; EM max [6]: 617 nm; EX max [6]: 528 nm
Calcein AM	–	–	–	–	–	–	–	–	–	–	–	–	–	–	–	–	T1/2 (time for half of dye to leak from intact cells) ([7]; 37° C., up to): up to 3 hour; Loading ([7]; in words): Easily loaded; Retention ([7]; in words): very good; pH sensitivity ([7]; in words): not very; usefulness with prokaryotic microbes versus eukaryotic microbes [4]: less useful with cells from prokaryotic microbes
CCN(CC)C1=CC(=Cc2sc3ccccc3[n+]2C)c2ccccc2N1c1ccccc1 [compound 619]	517	488	0.62	827	149	0.06	47	14.7	26	13	18	12	13	16	3.4	0.62	–
N=C(N)c1ccc(-c2cc3ccc(C(=N)N)cc3[nH]2)cc1 [DAPI]	–	–	–	–	–	–	–	–	–	–	–	–	–	–	–	–	excitability of nucleic acid complex ([17]; background): only excitable with UV light; spectral overlap of DNA-bound dye with cellular autofluorescence ([17]; background): overlap significantly with cellular autofluorescence
CN1C(=Cc2cc[n+](C)c3ccccc23)Sc2ccccc21 [Thiazole Orange, reference compound]	530	510	0.18	51	21	< 0.01	3.2	1.0	2	1	1	3	1	2	1.0	0.18	EM max [6]: 525 nm; EX max [6]: 509 nm
CCOc1ccc(-c2nc3ccc(-c4nc5ccc(N6CCN(C)CC6)cc5[nH]4)cc3[nH]2)cc1 [Hoechst 33342]	–	–	–	–	–	–	–	–	–	–	–	–	–	–	–	–	excitability of nucleic acid complex ([17]; background): only excitable with UV light; spectral overlap of DNA-bound dye with cellular autofluorescence ([17]; background): overlap significantly with cellular autofluorescence
CN(C)c1ccc2cc3ccc(N(C)C)cc3nc2c1 [acridine orange]	–	–	–	–	–	–	–	–	–	–	–	–	–	–	–	–	fluorescence enhancement upon binding to nucleic acids ([17]; background): about two-fold; background signal [17]: high background signal
CCCCC1=CC(=Cc2sc3ccccc3[n+]2C)c2ccccc2N1c1ccccc1 [compound 61]	527	500	0.46	196	49	0.01	15	4.7	10	5	10	10	6	5	2.5	0.46	staining of live cells ([5]; 5 μM, 30 minutes, room temperature): live cells are stained fluorescent green
